According to patent publication US20100152622A1, “MOTOR PHENOMENON MEASUREMENT” (priority 2007, published 2010):
Entries after “also recorded” stand apart in the source; their conditions may differ.

What was measured:
schizophrenia patients [1] = test: Handwriting velocity scaling (VS) in patients grouped by antipsychotic medication; assay type: in vivo, human; conditions: lower VS scores indicate more parkinsonian bradykinesia; loops of 1, 2, 4 cm
Text: Lower VS scores indicate more parkinsonian bradykinesia.
This measure expresses the extent to which movements are sped up when size is increased.
One simple and direct measure is the increase of a velocity measure in one stroke (e.g., in cm/s) divided by the increase of size (e.g., in cm). This resulting velocity scaling has a unit of size/duration/size or 1/duration.

schizophrenia patients [2] = conditions: for average normalized jerk (ANJ) score compared between medication groups / average normalized jerk (ANJ) score compared with healthy subjects: handwriting dysfluency; for average normalized jerk (ANJ) score compared between medication groups: marker of TD/EPS, 9 handwriting tasks, dominant hand, 1, 2, 4 cm, versus other medications; for average normalized jerk (ANJ) score compared with healthy subjects: medication group versus normal healthy subjects
schizophrenia patients [3] = test: Observer-based EPS severity ratings (SAEPS, AIMS, BARS); assay type: in vivo, human
schizophrenia patients [4] = conditions: in vivo
dopamine receptor = dopamine receptor (Homo sapiens, UniProt P14416); conditions: PET in schizophrenic patients before and after treatment; cited from earlier work
Sequence of dopamine receptor (P14416 whole entry): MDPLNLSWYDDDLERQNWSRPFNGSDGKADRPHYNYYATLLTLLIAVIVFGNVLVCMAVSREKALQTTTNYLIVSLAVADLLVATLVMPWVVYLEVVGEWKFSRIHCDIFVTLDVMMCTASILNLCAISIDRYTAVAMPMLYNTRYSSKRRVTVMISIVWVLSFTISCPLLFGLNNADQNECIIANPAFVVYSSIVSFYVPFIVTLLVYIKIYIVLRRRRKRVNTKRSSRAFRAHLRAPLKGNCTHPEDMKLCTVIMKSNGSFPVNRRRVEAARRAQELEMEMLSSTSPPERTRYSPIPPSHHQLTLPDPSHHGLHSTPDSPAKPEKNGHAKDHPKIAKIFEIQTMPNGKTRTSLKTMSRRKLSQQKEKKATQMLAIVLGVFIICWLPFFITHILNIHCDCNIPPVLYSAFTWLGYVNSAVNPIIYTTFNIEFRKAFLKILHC

effect of antipsychotic type on average normalized jerk and peak velocity (schizophrenia patients [2]; collapsed across all 14 task conditions) | Structure (SMILES) | velocity scaling (VS) score (slope of peak vertical velocity versus vertical size) compared between medication groups (schizophrenia patients [1]) | average normalized jerk (ANJ) score compared between medication groups (schizophrenia patients [2]) | average normalized jerk (ANJ) score compared with healthy subjects (schizophrenia patients [2]) | observer-based EPS assessments: medicated versus unmedicated groups and relationship with dose (schizophrenia patients [3]; conventional ratings) | correlation between observer-based severity ratings and dose (schizophrenia patients [3]; p>0.05) | correlation (r) of peak vertical velocity with daily dose (schizophrenia patients [4]) | motor impairment quantified by handwriting movements (schizophrenia patients [4]) | relationship between reduction in handwriting size (area) and dopamine receptor occupancy (dopamine receptor)
doing worse than others | O=C1CCc2ccc(OCCCCN3CCN(c4cccc(Cl)c4Cl)CC3)cc2N1 [aripiprazole] | lower VS scores than those on olanzapine or quetiapine; also recorded: lower VS scores than those on other medications | significantly higher ANJ | significantly higher ANJ scores than healthy subjects |  |  |  |  | 
 | OCCOCCN1CCN(C2=Nc3ccccc3Sc3ccccc32)CC1 [quetiapine] |  | significantly less abnormality than those treated with aripiprazole or risperidone | did not differ from normal healthy subjects |  |  |  |  | 
 | Cc1nc2n(c(=O)c1CCN1CCC(c3noc4cc(F)ccc34)CC1)CCCC2 [risperidone] |  |  |  | not able to detect differences between risperidone-medicated and unmedicated groups or a relationship with risperidone dose | no significant correlations | −0.45 | significant motor impairment | significant relationship between reduction in handwriting size (expressed by area) and dopamine receptor occupancy
